Laboratory results reported in ChEMBL document CHEMBL1157802, “5-Functionalized indazoles as glucocorticoid receptor agonists” (Bioorg Med Chem Lett, 2010).

Key:
[1] = molecular target: T1, Alpha-2A adrenergic receptor (Homo sapiens) (UniProt P08913); assay: Inhibition of adrenergic alpha2A receptor at 1 uM
T1 sequence (whole entry): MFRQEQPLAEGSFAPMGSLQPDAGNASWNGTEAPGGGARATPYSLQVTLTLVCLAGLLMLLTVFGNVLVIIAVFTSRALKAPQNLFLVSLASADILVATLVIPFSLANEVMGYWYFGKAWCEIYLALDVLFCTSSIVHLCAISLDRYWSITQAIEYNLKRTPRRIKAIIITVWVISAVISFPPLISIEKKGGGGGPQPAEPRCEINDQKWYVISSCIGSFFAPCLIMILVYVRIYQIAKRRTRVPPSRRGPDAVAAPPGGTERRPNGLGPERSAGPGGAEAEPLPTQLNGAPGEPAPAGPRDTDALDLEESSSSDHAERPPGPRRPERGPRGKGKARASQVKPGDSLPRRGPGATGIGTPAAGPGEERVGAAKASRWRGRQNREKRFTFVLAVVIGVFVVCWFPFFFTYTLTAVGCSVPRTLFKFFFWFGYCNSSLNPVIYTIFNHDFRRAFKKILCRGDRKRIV

[2] = Inhibition of GABAA receptor agonist site at 1 uM; format: functional
Glucocorticoid receptor = molecular target: T2, Glucocorticoid receptor (Homo sapiens, UniProt P04150); assay: Agonist activity at glucocorticoid receptor in human MDA-kb2 cells transfected with MMTV-LUC assessed as induction of MMTV-LTR/promoter linked LUC gene by luciferase transactivation assay; format: functional, cell-based; conditions: mda-kb2
T2 sequence (P04150 whole entry): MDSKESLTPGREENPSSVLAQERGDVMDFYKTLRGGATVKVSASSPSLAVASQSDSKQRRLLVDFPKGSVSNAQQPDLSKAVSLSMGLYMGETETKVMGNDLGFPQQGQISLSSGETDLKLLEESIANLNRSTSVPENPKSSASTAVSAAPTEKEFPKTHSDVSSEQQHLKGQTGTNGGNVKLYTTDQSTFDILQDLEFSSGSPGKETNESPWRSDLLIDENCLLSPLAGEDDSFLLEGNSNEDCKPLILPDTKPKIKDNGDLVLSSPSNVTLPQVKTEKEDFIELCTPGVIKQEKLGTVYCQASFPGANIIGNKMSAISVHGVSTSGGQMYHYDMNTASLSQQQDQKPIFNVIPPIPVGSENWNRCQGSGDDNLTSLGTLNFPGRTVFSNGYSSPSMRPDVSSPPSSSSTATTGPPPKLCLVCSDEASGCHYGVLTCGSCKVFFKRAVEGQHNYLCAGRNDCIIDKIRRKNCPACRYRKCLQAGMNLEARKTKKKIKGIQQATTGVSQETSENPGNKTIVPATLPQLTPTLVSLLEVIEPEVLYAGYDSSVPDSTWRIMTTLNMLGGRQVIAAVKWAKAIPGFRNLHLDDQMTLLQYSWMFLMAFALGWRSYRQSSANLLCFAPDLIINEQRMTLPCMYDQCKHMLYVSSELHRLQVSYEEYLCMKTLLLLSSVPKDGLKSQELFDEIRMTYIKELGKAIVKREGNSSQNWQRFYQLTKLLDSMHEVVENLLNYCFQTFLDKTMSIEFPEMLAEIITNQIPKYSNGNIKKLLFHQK

[3] = molecular target: Prostaglandin E2 receptor EP4 subtype (Homo sapiens) (UniProt P35408); assay: Inhibition of prostanoid EP4 receptor at 1 uM
Prostaglandin E2 receptor EP4 subtype (Homo sapiens), sequence (P35408 whole entry): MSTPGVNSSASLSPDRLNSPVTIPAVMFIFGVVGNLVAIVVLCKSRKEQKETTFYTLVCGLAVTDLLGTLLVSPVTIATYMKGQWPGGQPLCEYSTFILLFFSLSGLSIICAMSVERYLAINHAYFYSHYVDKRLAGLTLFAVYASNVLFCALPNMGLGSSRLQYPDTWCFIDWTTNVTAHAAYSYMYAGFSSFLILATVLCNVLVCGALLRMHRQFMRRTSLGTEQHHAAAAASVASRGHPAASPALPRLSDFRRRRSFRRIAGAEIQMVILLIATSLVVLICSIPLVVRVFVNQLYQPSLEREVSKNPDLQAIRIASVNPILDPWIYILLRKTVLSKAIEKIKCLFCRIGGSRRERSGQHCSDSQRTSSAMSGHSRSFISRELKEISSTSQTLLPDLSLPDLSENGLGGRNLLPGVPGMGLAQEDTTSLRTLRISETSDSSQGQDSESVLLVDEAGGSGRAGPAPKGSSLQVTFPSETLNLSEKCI

[4] = Inhibition of calcium channel L type dihydropyridine binding site at 1 uM
[5] = Inhibition of phorbol ester site of PKC at 1 uM
[6] = molecular target: T3, Muscarinic acetylcholine receptor M2 (Homo sapiens) (UniProt P08172); assay: Inhibition of muscarinic M2 receptor at 1 uM
T3 sequence (whole entry): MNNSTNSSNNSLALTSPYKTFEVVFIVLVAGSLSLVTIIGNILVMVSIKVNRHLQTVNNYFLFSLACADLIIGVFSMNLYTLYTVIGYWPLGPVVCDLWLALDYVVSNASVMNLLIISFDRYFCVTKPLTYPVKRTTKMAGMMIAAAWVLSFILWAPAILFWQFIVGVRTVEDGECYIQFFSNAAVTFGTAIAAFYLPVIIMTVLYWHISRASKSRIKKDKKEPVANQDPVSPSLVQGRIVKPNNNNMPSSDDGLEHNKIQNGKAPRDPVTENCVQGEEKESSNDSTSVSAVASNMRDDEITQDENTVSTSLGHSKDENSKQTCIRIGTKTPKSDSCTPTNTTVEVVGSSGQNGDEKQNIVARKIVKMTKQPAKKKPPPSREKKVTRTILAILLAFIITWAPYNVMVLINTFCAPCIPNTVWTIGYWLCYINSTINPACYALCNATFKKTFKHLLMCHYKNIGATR

[7] = Selectivity for human glucocorticoid receptor over progesterone receptor
[8] = Inhibition of central imidazoline I2 receptor at 1 uM
[9] = molecular target: Adenosine receptor A2a (Homo sapiens) (UniProt P29274); assay: Inhibition of adenosine A2A receptor at 1 uM
Adenosine receptor A2a (Homo sapiens), sequence (P29274 whole entry): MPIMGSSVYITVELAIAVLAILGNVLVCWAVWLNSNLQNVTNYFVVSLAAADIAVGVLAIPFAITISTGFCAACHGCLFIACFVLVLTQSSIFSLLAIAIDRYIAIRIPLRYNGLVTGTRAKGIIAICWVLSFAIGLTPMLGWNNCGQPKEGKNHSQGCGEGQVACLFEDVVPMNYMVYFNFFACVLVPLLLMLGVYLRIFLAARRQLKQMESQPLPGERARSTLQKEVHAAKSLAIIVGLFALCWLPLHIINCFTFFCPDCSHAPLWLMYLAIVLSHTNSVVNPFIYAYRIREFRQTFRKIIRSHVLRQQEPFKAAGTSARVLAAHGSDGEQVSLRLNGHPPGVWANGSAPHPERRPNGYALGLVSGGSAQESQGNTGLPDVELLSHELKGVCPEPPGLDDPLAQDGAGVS

[10] = Inhibition of ATP-sensitive potassium channel at 1 uM
[11] = Inhibition of nicotinic acetylcholine receptor at 1 uM
[12] = molecular target: T4, Alpha-1B adrenergic receptor (Homo sapiens) (UniProt P35368); assay: Inhibition of adrenergic Alpha-1B receptor at 1 uM
T4 sequence (whole entry): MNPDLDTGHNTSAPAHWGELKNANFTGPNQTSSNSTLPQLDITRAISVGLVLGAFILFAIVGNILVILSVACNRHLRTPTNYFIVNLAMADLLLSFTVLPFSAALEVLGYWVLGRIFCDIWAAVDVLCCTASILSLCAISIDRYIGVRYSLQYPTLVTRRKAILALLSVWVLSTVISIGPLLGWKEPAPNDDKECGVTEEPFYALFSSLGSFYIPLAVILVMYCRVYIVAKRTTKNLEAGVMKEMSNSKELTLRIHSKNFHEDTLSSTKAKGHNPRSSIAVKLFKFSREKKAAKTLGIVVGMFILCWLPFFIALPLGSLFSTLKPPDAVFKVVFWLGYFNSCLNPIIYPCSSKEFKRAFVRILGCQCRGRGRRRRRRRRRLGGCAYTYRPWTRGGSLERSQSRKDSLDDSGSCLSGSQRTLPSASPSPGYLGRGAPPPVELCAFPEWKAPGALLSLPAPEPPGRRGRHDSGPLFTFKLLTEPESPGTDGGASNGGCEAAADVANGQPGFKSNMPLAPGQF

[13] = Inhibition of rolipram binding site at 1 uM

SMILES | inhibition [1] [%] | inhibition [2] [%] | EC50 (Glucocorticoid receptor) | inhibition [3] [%] | inhibition [4] [%] | inhibition [5] [%] | inhibition [6] [%] | Ratio [7] | inhibition [8] [%] | inhibition [9] [%] | inhibition [10] [%] | inhibition [11] [%] | inhibition [12] [%] | inhibition [13] [%]
OC(c1ccnc(Cl)c1)(c1ccc2c(cnn2-c2ccc(F)cc2)c1)C(F)(F)F (single isomer, unassigned; (-)) | < 50 | < 50 | Not Active | < 50 | < 50 | < 50 | < 50 | > 1000 | < 50 | < 50 | < 50 | < 50 | < 50 | < 50
Cc1cc(C(O)(c2ccc3c(cnn3-c3ccc(F)cc3)c2)C(F)(F)F)ccc1F (single isomer, unassigned; (-)) | < 50 | < 50 | Not Active | < 50 | < 50 | < 50 | < 50 | > 1000 | < 50 | < 50 | < 50 | < 50 | < 50 | < 50
